Test results reported in patent US20250101052A1, “COMPOUND FOR EGFR KINASE INHIBITOR, COMPOSITION, AND USE THEREOF” (INNOVATION INSTITUTE FOR ARTIFICIAL INTELLIGENCE IN …, priority 2021, published 2025).
pIC50: −log10 of the molar value.

Legend:
[1] = test system: EGFR phosphorylation in Ba/F3-EGFR^L858R/T790M/C797S engineered cells; experiment: Cell phosphorylation inhibition effect (pEGFR ELISA); assay type: cell-based, human; conditions: for IC50: Mus musculus, Ba/F3 EGFR-L858R, EGF stimulated, ELISA pY1068, read-out: Cellular pEGFR Inhibition IC50 (nM) Ba/F3-EGFR^L858R/T790M/C797S; for inhibitory effect on EGFR phosphorylation (in words): Ba/F3-EGFR^L858R/T790M/C797S engineered cells
Procedure: Cell line: BaF3 cells with stable overexpression of EGFR^T790M/C797S/L858R mutant genes, named BaF3-EGFR^T790M/C797S/L858R cells.
a) The medium was preheated in a 37° C. water bath.
b) The cryopreservation tube was taken from the liquid nitrogen tank, quickly placed in a 37° C. water bath, and melted completely within 1 minute.
c) The cell suspension was transferred to a 15 mL centrifuge tube containing a 10 mL medium and centrifuged at 1000 rpm for 4 minutes.
d) The supernatant was discarded, the cells were resuspended in a 1 mL medium and transferred to a […] culture dish containing a 10 mL medium, 20% serum and 50 ng/mL EGF were administered to the first-generation medium, and culture was conducted in a 37° C. and 5% CO2 incubator.
b) The cells in the culture dish were blown evenly with a 5 mL pipette, and 500 μL of the cells were pipetted out to be inoculated into a new […] culture dish and cultured in a 37° C. and 5% CO2 incubator.
a) The compound to be tested (10 mM stock solution) was diluted with 100% DMSO to 1 mM, and diluted with a culture solution in a 24-well plate to prepare of a working solution of 2 μM concentration.
b) The 2 μM working solution was diluted with a triple dilution method to obtain working solutions with approximate concentrations of 2 μM, 600 nM, 200 nM, 60 nM, and 20 nM.
a) The cells at the logarithmic growth phase were centrifuged at 1000 rpm for 4 minutes, resuspended with a medium (containing 10% serum), and counted.
b) The cells were inoculated into a 24-well plate with a cell density of 2 million cells/well, and placed in a 37° C. and 5% CO2 incubator for stabilization overnight.
a) The prepared compound was added to a 96-well plate, with 100 μL per well. The final concentrations were 1 μM, 300 nM, 100 nM, 30 nM, 10 nM, and 0 nM, and the final concentration of DMSO was 0.2%. A medium and 0.2% DMSO served as a blank control.
b) 100 ng/mL EGF was added at 1 hour and 45 minutes of administration. After 15 minutes of EGF treatment, the cells were collected and centrifuged to obtain the supernatant.
(5) Detection of Intracellular pEGFR Content
The content of EGFR and pEGFR in the supernatant was determined using an ELISA kit (Abcam, ab126439-EGFR (pY1068)+total EGFR Human ELISA).
The data was analyzed using GraphPad Prism 8.0 software to obtain a fitted curve of activity of the compounds. The IC50 of the compounds was fitted from nonlinear regression equation.

[2] = molecular target: EGFR^L858R/T790M/C797S kinase (Homo sapiens (Human), UniProt P00533, C797S/L858R/T790M); experiment: EGFR^L858R/T790M/C797S kinase inhibitory activity experiment; assay type: biochemical; conditions: in vitro
Chain of EGFR^L858R/T790M/C797S kinase (P00533 25-1210 T790M/C797S/L858R): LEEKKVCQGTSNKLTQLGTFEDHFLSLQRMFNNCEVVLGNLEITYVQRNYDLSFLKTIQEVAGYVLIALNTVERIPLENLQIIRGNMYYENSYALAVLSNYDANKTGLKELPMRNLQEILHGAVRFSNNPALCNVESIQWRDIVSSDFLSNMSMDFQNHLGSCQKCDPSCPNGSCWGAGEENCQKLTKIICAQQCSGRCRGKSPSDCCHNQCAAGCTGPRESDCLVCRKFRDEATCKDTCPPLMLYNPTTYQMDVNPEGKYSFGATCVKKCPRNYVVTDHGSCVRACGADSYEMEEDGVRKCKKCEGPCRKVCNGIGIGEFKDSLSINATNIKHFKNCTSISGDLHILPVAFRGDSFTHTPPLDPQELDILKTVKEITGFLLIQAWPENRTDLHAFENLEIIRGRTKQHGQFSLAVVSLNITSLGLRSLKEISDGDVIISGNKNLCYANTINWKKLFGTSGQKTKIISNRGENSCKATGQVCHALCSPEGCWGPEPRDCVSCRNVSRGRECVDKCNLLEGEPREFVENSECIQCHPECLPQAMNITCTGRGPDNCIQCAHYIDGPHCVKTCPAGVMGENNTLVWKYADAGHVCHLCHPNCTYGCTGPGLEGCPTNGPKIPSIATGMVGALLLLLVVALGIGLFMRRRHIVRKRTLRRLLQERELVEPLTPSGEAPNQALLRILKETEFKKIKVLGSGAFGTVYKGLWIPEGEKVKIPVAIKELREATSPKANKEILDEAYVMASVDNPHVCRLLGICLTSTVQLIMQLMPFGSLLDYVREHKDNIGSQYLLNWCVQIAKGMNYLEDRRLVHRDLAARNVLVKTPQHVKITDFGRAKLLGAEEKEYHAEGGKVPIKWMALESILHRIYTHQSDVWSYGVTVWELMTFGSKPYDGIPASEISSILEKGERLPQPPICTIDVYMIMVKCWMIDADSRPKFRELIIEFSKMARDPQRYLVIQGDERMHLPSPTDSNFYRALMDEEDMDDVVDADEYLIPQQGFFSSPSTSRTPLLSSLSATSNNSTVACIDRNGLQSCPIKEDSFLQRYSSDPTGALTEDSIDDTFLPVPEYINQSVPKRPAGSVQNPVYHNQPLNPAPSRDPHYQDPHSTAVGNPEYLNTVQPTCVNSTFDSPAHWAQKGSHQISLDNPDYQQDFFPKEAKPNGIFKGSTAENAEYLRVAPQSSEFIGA
Procedure, shortened: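 Human EGFR L858R/T790M/C797S mutant preincubated 10 min with compound (10-point dilution from 1 μM), then reacted 60 min at room temperature with ATP and kinase substrate 22. Substrate conversion read by Caliper mobility shift. % inhibition normalized to no-enzyme and no-compound wells, with IC50 from variable-slope log(inhibitor) fit.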

SMILES	IC50 [1]	pIC50 [2]	inhibitory effect on EGFR phosphorylation (in words) [1]
CCc1cc(Nc2ncc(Cl)c(Nc3ccc(C)c(C)c3P(C)(C)=O)n2)c(OC)cc1N1CCC(N2CCN(C)CC2)CC1 [Comparative Compound A, reference compound]	405 nM	9.27	
CCc1cc(Nc2ncc(Cl)c(Nc3ccc(C)c(C)c3P(C)(C)=O)n2)c(OC)cc1N1CCC2(CC1)CC(N(C)C)C2 [Compound 6, (6-((5-chloro-2-((4-(2-(dimethylamino)-7-azaspiro[3.5]nonan-7-yl)-5-ethyl-2-methoxyphenyl)amino)pyrimidin-4-yl)amino)-2,3-dimethylphenyl)dimethylphosphine oxide]		9.06	
CCc1cc(Nc2ncc(Cl)c(Nc3ccc(C)c(C)c3P(C)(C)=O)n2)c(OC)cc1N1CC2(CCN(C)CC2)C1 [Compound 24, (6-((5-Chloro-2-((5-ethyl-2-methoxy-4-(7-methyl-2,7-diazaspiro[3.5]non-2-yl)phenyl)amino)pyrimidin-4-yl)amino)-2,3-dimethylphenyl)dimethylphosphine oxide]	150 nM	9.26	good inhibitory effect
CCc1cc(Nc2ncc(Cl)c(Nc3ccc(C)c(C)c3P(C)(C)=O)n2)c(OC)cc1N1CCC(N2C[C@H]3CC[C@@H](C2)N3C)CC1 [Compound 51, (6-((5-chloro-2-((5-ethyl-2-methoxy-4-(4-((1R,5S)-8-methyl-3,8-diazabicyclo[3.2.1]octan-3-yl)piperidin-1-yl)phenyl)amino)pyrimidin-4-yl)amino)-2,3-dimethylphenyl)dimethylphosphine oxide]	132 nM	10.34	good inhibitory effect
